Measured values reported in ChEMBL document CHEMBL1201862, “PubChem BioAssay data set” (2004).
Active and inactive are the calls of the source.

How the values were obtained:
[1] = target: T1, Short transient receptor potential channel 4 (Mus musculus, UniProt Q9QUQ5); assay: block of DAMGO-driven TRPC4 calcium entry – cell-based, HEK293 TRPC4/mu-opioid, Fluo-4 calcium, dose response (AID 434942); assay type: functional;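 also: potency of inhibitors blocking the TRPC4 calcium response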
T1 sequence (Q9QUQ5 whole entry): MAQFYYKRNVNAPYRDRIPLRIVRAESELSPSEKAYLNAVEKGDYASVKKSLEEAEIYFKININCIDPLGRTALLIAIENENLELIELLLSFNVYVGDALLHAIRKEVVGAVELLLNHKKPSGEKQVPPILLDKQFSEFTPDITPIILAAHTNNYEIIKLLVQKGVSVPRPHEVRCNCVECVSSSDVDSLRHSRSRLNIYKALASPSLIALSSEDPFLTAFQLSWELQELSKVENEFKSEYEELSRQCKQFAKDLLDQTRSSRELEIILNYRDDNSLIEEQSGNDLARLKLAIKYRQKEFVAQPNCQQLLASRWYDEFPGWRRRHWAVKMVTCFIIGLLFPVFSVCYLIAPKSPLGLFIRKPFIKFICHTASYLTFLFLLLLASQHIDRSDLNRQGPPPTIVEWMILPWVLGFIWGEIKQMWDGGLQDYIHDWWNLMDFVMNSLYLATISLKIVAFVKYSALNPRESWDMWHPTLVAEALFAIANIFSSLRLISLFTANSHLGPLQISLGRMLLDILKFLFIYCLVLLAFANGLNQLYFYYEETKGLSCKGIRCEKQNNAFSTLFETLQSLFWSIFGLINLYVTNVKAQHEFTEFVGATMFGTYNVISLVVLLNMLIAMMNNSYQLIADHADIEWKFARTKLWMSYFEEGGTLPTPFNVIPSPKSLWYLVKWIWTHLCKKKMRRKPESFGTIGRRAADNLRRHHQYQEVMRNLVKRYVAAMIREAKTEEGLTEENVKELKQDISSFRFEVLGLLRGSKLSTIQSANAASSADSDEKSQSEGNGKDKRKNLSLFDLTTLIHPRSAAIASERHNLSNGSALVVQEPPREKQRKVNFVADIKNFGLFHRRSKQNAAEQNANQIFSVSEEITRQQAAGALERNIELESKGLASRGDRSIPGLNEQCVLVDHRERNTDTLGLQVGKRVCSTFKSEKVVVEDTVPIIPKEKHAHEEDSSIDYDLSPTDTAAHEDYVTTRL

[2] = target: Nonstructural protein 1 (Influenza A virus, UniProt Q194T2); assay type: functional, Influenza A virus (A/California/07/2009(H1N1))
[3] = target: Luciferin 4-monooxygenase (Photinus pyralis, UniProt P08659); assay: inhibition of purified Photinus pyralis luciferase – biochemical, luminescence, dose response (AID 1891)
[4] = tested on: BJ; assay: cells; assay type: functional, cell-based; details: Homo sapiens
[5] = tested on: BJ; assay: BJ-TERT fibroblast viability loss – cell-based, RAS-independent, luminescence, dose response (AID 1933); assay type: functional; details: Homo sapiens
[6] = tested on: BJ; assay: BJ-TERT-LT-ST fibroblast viability loss – cell-based, RAS-independent, luminescence, dose response (AID 1935); assay type: functional; details: Homo sapiens;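 also: BJ fibroblasts immortalized with TERT plus LT and ST oncogenes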
[7] = Luminescence Cell-Based Dose Confirmation HTS to Identify Inhibitors of Platelet Dense Granule Release. [Related pubchem assays: 1663 (Primary HTS), 1678 (Summary of Project)]; assay type: functional
[8] = DRD fibroblast viability loss – cell-based, non-viral oncogenic, luminescence, dose response (AID 1934); assay type: functional; details: Homo sapiens
[9] = A cytotoxicity screen of small molecule inhibitors of the PhoP region in Salmonella typhi identified in the primary screen. [Related pubchem assays: 1850, 1864, 1985 ]; assay type: functional
[10] = target: T2, Replicative DNA helicase DnaB (Mycobacterium tuberculosis, UniProt P9WMR3); assay: DnaB intein splicing inhibitors, dose response, biochemical, cell-free fluorescence (AID 449749); assay type: functional
T2 sequence (P9WMR3 whole entry): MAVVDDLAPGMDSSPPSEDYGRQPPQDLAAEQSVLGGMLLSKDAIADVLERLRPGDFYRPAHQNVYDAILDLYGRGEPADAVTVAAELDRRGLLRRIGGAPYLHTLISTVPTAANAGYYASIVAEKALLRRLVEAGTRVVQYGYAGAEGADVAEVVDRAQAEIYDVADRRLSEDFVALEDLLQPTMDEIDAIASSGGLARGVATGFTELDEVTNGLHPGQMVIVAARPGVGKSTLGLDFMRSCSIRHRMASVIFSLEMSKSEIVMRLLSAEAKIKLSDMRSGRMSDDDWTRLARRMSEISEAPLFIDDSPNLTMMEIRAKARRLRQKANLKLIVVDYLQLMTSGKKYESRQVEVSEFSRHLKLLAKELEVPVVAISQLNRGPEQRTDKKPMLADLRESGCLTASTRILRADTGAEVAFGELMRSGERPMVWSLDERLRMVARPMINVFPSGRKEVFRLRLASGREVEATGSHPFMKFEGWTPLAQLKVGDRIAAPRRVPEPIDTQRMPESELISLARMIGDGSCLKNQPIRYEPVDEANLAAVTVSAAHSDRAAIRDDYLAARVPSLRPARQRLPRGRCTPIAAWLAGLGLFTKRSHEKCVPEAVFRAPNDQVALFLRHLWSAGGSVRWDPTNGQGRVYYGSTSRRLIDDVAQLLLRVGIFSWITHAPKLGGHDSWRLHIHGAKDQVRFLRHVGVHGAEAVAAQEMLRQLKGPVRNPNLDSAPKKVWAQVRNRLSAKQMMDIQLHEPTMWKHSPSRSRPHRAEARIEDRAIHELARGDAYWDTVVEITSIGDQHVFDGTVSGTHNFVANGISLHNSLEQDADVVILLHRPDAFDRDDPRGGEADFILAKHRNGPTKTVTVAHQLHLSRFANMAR

[11] = target: T3, Protein RecA (Mycobacterium tuberculosis, UniProt P9WHJ3); assay: Fluorescence Cell-Free Homogeneous Dose Retest to Identify Inhibitors of RecA-Intein Splicing Activity. [Related pubchem assays (depositor defined):AID2097, AID2223, AID489010, AID492950]; assay type: functional
T3 sequence (P9WHJ3 whole entry): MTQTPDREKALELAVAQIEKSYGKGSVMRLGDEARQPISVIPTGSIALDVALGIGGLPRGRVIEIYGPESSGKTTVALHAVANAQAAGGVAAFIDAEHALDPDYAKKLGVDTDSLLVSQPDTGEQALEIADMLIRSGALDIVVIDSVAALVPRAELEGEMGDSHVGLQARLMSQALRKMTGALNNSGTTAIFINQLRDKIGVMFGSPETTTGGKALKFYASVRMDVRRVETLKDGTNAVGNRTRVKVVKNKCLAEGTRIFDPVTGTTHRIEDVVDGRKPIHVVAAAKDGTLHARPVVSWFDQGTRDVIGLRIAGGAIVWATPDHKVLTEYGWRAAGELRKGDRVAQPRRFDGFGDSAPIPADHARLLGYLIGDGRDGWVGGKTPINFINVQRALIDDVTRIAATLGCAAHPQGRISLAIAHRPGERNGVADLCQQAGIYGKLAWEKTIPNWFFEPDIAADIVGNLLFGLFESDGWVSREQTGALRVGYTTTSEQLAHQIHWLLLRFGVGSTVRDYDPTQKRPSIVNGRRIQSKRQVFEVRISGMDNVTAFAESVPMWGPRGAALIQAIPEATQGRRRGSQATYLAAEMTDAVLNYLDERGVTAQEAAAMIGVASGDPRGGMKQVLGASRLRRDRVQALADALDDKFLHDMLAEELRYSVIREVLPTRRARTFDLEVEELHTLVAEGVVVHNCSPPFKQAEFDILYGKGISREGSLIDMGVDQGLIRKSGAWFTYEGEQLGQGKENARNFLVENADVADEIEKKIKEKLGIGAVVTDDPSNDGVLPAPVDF

[12] = target: Glyceraldehyde-3-phosphate dehydrogenase (Homo sapiens, UniProt P04406)
[13] = luciferase reporter signal suppression in cells – H4 neuroglioma cells, luminescence, dose response (AID 1990); assay type: functional, cell-based
[14] = alpha-synuclein stem-loop luciferase translation blockers – H4 neuroglioma cells, luminescence, confirmation (AID 1988); assay type: functional, cell-based
[15] = Luminescence Cell-Based Dose Response HTS to Identify Inhibitors of 5'UTR Stem-Loop Driven Prion Protein mRNA Translation in H4 Neuroglioblastoma Cells. [Related pubchem assays: 1827 (Project Summary), 1813 (Primary HTS)]; assay type: functional
[16] = target: T4, Microphthalmia-associated transcription factor (Homo sapiens, UniProt O75030); assay: reducers of TRPM1 reporter luminescence, concentration series – cell-based, SK-MEL-5, cherry-picked, set 3, MITF inhibitor project, dose response (AID 493073); assay type: functional;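 also: SK-MEL-5 melanoma cells with luciferase driven by the MITF target TRPM1 promoter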
T4 sequence (O75030 whole entry): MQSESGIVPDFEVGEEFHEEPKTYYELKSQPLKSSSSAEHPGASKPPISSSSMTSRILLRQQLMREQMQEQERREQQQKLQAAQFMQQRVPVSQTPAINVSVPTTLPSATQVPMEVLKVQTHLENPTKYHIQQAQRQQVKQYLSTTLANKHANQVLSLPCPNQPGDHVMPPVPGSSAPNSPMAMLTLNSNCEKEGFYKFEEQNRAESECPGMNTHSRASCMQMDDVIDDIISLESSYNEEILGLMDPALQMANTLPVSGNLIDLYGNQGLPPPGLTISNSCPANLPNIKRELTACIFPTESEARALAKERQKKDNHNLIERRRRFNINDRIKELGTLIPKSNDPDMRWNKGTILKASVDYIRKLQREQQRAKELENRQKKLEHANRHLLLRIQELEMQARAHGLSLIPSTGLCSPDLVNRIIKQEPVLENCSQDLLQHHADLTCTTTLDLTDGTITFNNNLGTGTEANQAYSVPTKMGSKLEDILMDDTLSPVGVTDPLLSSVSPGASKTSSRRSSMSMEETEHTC

Glyceraldehyde-3-phosphate dehydrogenase, sequence (P04406 whole entry): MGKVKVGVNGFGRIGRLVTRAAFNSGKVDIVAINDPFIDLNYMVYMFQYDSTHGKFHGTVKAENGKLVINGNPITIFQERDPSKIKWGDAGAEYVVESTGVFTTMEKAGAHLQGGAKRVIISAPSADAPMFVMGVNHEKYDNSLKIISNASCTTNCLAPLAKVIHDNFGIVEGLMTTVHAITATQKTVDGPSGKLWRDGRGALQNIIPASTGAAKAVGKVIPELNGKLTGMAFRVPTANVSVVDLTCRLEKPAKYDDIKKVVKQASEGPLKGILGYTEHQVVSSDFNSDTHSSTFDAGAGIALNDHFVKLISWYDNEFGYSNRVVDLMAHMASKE
Nonstructural protein 1, sequence (Q194T2 whole entry): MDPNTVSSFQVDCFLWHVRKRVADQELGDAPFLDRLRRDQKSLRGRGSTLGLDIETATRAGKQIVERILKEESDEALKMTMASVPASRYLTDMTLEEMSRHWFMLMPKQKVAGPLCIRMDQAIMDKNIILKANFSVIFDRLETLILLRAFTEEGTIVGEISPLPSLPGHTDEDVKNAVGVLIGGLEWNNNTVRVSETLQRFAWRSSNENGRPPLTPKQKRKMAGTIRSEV
Luciferin 4-monooxygenase, sequence (P08659 whole entry): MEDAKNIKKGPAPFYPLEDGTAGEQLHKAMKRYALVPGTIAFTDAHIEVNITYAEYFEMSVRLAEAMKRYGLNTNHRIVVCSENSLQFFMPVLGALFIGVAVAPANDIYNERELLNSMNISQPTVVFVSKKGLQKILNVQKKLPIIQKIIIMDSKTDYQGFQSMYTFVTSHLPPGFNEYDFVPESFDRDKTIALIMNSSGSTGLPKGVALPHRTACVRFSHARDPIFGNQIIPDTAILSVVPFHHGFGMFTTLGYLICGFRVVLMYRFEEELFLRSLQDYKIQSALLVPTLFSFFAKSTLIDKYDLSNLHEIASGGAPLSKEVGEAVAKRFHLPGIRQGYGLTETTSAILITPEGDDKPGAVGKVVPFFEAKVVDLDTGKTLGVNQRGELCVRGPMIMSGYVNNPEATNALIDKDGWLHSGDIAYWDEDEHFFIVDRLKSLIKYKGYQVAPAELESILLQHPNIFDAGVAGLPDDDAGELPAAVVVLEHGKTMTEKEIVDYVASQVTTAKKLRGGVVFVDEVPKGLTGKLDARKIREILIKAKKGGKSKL

CN1CCN(Cc2c[nH]nc2-c2ccc(F)cc2F)[C@@H](c2ccccc2)C1
EC50 [1]: 4.22 µM (active)

CCC1CCCCN1c1nc(-c2cccc(OC)c2O)nc2ccccc12 (stereo unspecified)
IC50 [2]: > 100 µM (active)

OCCNc1nc2ccccc2n1CCN1CCCCC1
EC50 [1]: 3.35 µM (active)

Cc1ccsc1C(=O)Nc1ccc(OCc2ccccc2)cc1
EC50 [3]: 1.7 µM (active) | EC50 [4]: 34.4 µM (active) | EC50 [5]: > 150 µM (not active) | EC50 [6]: > 150 µM (not active) | EC50 [7]: 5.83 µM (active) | EC50 [8]: > 150 µM (inconclusive)

O=C1C(=C(c2ccccc2)c2ccccc2)Nc2ccccc21
IC50 [2]: 30.3 µM (active)

Cc1ccc(SCc2n[nH]c3c2C(c2cccnc2)C(C#N)=C(N)O3)cc1 (stereo unspecified)
EC50 [9]: > 50 µM (active)

CC1CC1C(=O)Nc1nc2ccc(S(C)(=O)=O)cc2s1 (stereo unspecified)
EC50 [9]: > 50 µM (active)

O=C(CCl)N(Cc1cccc([N+](=O)[O-])c1)c1cccc(Cl)c1
EC50 [4]: 1.41 µM (inconclusive) | EC50 [5]: 0.25 µM (active) | EC50 [6]: 4.87 µM (inconclusive) | AC50 [10]: 5.28 µM (active) | EC50 [11]: 0.512 µM (active) | EC50 [8]: 1.22 µM (active)

COc1cccc(N2C(=O)C(Cl)=C(N3CCN(C)CC3)C2=O)c1
IC50 [12]: > 50 µM (inconclusive)

COC(=O)c1ccc(Nc2cc(C)nc3ccccc23)cc1
EC50 [13]: 11.6 µM (active) | EC50 [14]: 7.97 µM (active) | EC50 [15]: 16.4 µM (active) | EC50 [1]: 3.76 µM (active)

Cc1noc(C)c1S(=O)(=O)N1CCC(Cc2ccccc2)CC1
EC50 [9]: > 50 µM (active)

O=C1C(Cl)=C(N2CCOCC2)C(=O)N1c1ccc(C(F)(F)F)cc1
IC50 [12]: > 50 µM (inconclusive)

Cc1ccc(N2C(=O)C(Cl)=C(N3CCN(C)CC3)C2=O)cc1
IC50 [12]: > 50 µM (inconclusive)

Fc1cccc(Cl)c1CSc1ccc(-c2ccco2)nn1
EC50 [9]: > 50 µM (active)

CCCCCN1C(=O)/C(=C/c2c(N3CCc4ccccc4C3)nc3ccccn3c2=O)SC1=S
EC50 [9]: > 50 µM (active)

c1csc(CNc2nc(-c3cccs3)nc3ccccc23)c1
EC50 [1]: 4.73 µM (active)

O=[N+]([O-])c1ccc(/C=N/N=C/c2ccc([N+](=O)[O-])o2)o1
AC50 [16]: 9.36 µM (active)

O=[N+]([O-])c1cccc(/C=N/c2cc3c(cc2Br)OCCO3)c1
IC50 [2]: > 100 µM (active)
